Here are results for 15 compounds from ChEMBL document CHEMBL3603825, “Synthesis and evaluation of arylpiperazine-reverse amides as biased dopamine D3 receptor ligands” (Bioorg Med Chem, 2015).

The target of assay [1] is T1, D(2) dopamine receptor (Homo sapiens, UniProt P14416). Description: Displacement of [3H]-sulpiride from human dopamine D2 receptor expressed in HEK293 cells at 100 nM after 150 mins by liquid scintillation counting. In kind it is cell-based.
In assay [2] the target is T2, D(3) dopamine receptor (Homo sapiens, UniProt P35462). Description: Displacement of [3H]-sulpiride from human dopamine D3 receptor expressed in HEK293 cells at 100 nM after 150 mins by liquid scintillation counting. In kind it is cell-based.
Assay [3] addresses T1, D(2) dopamine receptor. Description: Displacement of [3H]-sulpiride from human dopamine D2 receptor expressed in HEK293 cells after 150 mins by liquid scintillation counting. Format: cell-based.
A further assay is filed under the species Homo sapiens. Description: Selectivity ratio of Ki for human dopamine D2 receptor to Ki for human dopamine D3 receptor.
For assay [4], the target named is T2, D(3) dopamine receptor. Description: Displacement of [3H]-sulpiride from human dopamine D3 receptor expressed in HEK293 cells after 150 mins by liquid scintillation counting. Format: cell-based.

Where “and” joins values, the source holds several entries; their conditions need not be identical. Equal entries are not always repeated.

T1 sequence (P14416 whole entry): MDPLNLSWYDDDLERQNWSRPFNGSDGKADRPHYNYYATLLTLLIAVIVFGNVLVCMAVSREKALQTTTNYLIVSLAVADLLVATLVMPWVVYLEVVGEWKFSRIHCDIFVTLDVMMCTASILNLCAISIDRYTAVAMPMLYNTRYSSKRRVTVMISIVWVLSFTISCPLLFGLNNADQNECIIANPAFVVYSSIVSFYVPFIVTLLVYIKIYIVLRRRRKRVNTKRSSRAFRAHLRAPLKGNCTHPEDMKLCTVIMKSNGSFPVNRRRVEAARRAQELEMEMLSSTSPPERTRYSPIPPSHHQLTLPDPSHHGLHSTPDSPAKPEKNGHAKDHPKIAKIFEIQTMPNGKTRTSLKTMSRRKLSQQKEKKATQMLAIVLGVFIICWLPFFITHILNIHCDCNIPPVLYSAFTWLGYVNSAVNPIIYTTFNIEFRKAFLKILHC
T2 sequence (P35462 whole entry): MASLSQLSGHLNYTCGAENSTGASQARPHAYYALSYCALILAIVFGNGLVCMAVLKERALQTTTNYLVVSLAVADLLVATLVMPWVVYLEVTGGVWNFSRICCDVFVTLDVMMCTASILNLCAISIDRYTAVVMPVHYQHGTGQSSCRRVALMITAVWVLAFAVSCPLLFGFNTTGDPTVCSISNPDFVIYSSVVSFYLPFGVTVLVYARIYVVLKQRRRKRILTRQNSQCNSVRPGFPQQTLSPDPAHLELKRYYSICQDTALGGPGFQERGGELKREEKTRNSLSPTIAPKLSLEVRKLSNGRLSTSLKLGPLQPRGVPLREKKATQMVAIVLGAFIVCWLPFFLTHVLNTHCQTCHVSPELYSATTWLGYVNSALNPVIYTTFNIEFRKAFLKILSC

`O=C(CCCCN1CCN(c2cccc(Cl)c2Cl)CC1)Nc1nc2ccccc2s1`: the inhibition was 30.1% and 6.9% at D(2) dopamine receptor [1]; 34.8% and 12.8% on D(3) dopamine receptor [2].

In the case of `COc1ccc2nc(NC(=O)CCCCN3CCN(c4ccc(Cl)cc4F)CC3)sc2c1`, the inhibition was 3.1% and 2.6% on D(2) dopamine receptor [1]; 33.4% and 28.7% on D(3) dopamine receptor [2].

Turning to `O=C(CCCCN1CCN(c2cccc(C(F)(F)F)c2)CC1)Nc1nc2ccccc2[nH]1`, the inhibition on D(2) dopamine receptor [1] is 34% and 14.3%; on D(3) dopamine receptor [2] it was 27.7% and 34.9%.

Take `O=C(CCCCN1CCN(c2ccc(Cl)cc2)CC1)Nc1nc2ccccc2s1`: the results for the inhibition on D(2) dopamine receptor [1] and at D(3) dopamine receptor [2] were 57.3% and 65.2%, respectively.

Take `O=C(CCCCN1CCN(c2ccc(Cl)cc2)CC1)Nc1nc2ccc([N+](=O)[O-])cc2s1`: the inhibition at D(2) dopamine receptor [1] was 30.2%; on D(3) dopamine receptor [2] it was 45.2%.

Regarding `O=C(CCCCN1CCC(O)(c2ccc(Cl)cc2)CC1)Nc1nc2ccccc2s1`, the inhibition at D(2) dopamine receptor [1] is 33.3% and 24.8%; at D(3) dopamine receptor [2] it was 25.8% and 7.9%.

For the compound `COc1ccc2nc(NC(=O)CCCCN3CCN(c4ccccc4Cl)CC3)sc2c1`, the inhibition on D(2) dopamine receptor [1] was 78.8% and 54.5%; at D(3) dopamine receptor [2] it was 60.5% and 81.6%.

Turning to `O=C(CCCCN1CCN(c2ccc(Cl)cc2)CC1)Nc1nc2ccc(Cl)cc2s1`, the inhibition at D(2) dopamine receptor [1] is 7% and 11%; at D(3) dopamine receptor [2], 30.3% and 26.2%.

For `O=C(CCCCN1CCN(c2ccc(Cl)cc2Cl)CC1)Nc1nc2ccccc2s1`, the inhibition at D(2) dopamine receptor [1] is 14.5% and 15.2%; on D(3) dopamine receptor [2] it was 46% and 48.3%. In addition, the results for the Ki on D(2) dopamine receptor [3] and on D(3) dopamine receptor [4] were 5590 nM and 87.6 nM, respectively. For the same compound, the Ratio Ki in the assay listed under Homo sapiens amounted to 63.8.

Turning to `COc1ccc2nc(NC(=O)CCCCN3CCN(c4ccc(Cl)cc4)CC3)sc2c1`, the inhibitory constant (Ki) on D(2) dopamine receptor [3] was 197 nM; at D(3) dopamine receptor [4], 9.4 nM. Besides, the Ratio Ki in the assay listed under Homo sapiens worked out at 21.

Regarding `O=C(CCCCN1CCN(c2ccc(Cl)cc2)CC1)Nc1nc2ccccc2[nH]1`, the inhibition was found to be 29.9% on D(2) dopamine receptor [1] and 35.5% on D(3) dopamine receptor [2].

For the compound `O=C(CCCCN1CCN(c2ccc(Cl)cc2)CC1)Nc1nc2cc(Cl)ccc2o1`, the inhibition is -4.1% at D(2) dopamine receptor [1] and 1.7% at D(3) dopamine receptor [2].

As for `Cc1ccc2nc(NC(=O)CCCCN3CCN(c4ccc(Cl)cc4)CC3)sc2c1`, the inhibition worked out at 1% on D(2) dopamine receptor [1] and 13.4% at D(3) dopamine receptor [2].

With `O=C(CCCCN1CCN(c2ccc(Cl)cc2)CC1)Nc1nc2ccccc2o1`, the results for the inhibition at D(2) dopamine receptor [1] and at D(3) dopamine receptor [2] were 40.9% and 56.1%, respectively.

On to `O=C(CCCCN1CCN(c2ccccc2F)CC1)Nc1nc2ccccc2s1`, for which, at D(3) dopamine receptor [2], the inhibition is 75.1% and 63.1%. Also, the Ki on D(2) dopamine receptor [3] amounted to 175 nM; on D(3) dopamine receptor [4] it was 3.9 nM. In addition, in the assay filed under Homo sapiens, the Ratio Ki was found to be 45.
